Results taken from patent US5198433A, “Lactamimides as calcium antagonists” (Merrell Dow Pharmaceuticals Inc., priority 1992, dated 1993).

What was measured:
[1] = target: [^3 H]d-cis-diltiazem binding to rat whole brain membranes (calcium ion-channel protein); experiment: [^3 H]d-cis-Diltiazem binding assay (displacement from rat whole brain membranes); parameters: species or system rat (male Sprague-Dawley); conditions: for pKi: Table 1, displacement of 3H diltiazem, rat brain membranes, n = 3, Cheng & Prusoff; for IC50: ligand […]
Description: The whole brain from male Sprague-Dawley rats (200-300 g) was dissected and homogenized in cold 50 mM Tris-HCl buffer (pH 7.4) for 2 x 30 second periods by Polytron (Brinkmann, setting No. 5). The homogenate was washed 2 times (48,000 ×g for 10 minutes, 4° C.) with intermittent resuspension of the pellet in fresh buffer. The final pellet was resuspended to an original tissue concentration of 100 mg/ml in Tris-HCl buffer. […] The reaction was terminated by rapid filtration under a vacuum through 0.05% polyethylenimine-pretreated Whatman GF/B glass fiber filters. Filters were immediately washed 2 times with 4 ml of cold Tris-HCl buffer. Pretreatment of the filters with 0.05% polyethylenimine served to eliminate [^3 H]d-cis-diltiazem binding to the filter. The filters were dried and the radioactivity in the filters was extracted overnight in scintillation fluid.

[2] = target: T1, K^+ -depolarized guinea pig ileum or taenia (Cavia porcellus); experiment: Antagonism of Ca^++ -induced contractions of K^+ -depolarized guinea pig taenia or ileum; format: cell-based; conditions: for pA2: Table 1, guinea pig ileum or taenia, K^+ -depolarized, Ca^++ -induced contraction, Arunlakshana & Schild; for mean pA2 value (95% confidence interval), Schild plot / mean slope (±S.D.) of Schild plot: FIG. 6, 40 mM K^+ -depolarized guinea pig ileum
T1 construct: pieces of ileum, 2 cm in length, from male guinea pigs (200-400 g) were set up in isolated organ baths; from tissue; host or cells: strips of taenia from the caecum or pieces of ileum of male guinea pigs
Description: Strips of taenia from the caecum or pieces of ileum, 2 cm in length, from male guinea pigs (200-400 g) were set up in isolated organ baths in Ca^++ -free K^+ Tyrode's solution (mM NaCl 137, KCl 40, NaH2 PO4 0.4, NaHCO3 11.9, glucose 5.5) and gassed with 95% O2, 5% CO2 at 37° C. Contractions were measured with isotonic transducers with a 1 g load. Cumulative dose-response curves were obtained. Tissues were then washed and incubated with the compounds for 20-25 minutes and then Ca^++ concentration response curves re-established. […] Dose ratios were determined graphically at ED50 values from the Ca^++ dose-response curve and Schild plots were constructed to determine pA2 value using inverse regression line analysis. Alternatively, when only one concentration of an antagonist was used, pA2 values were calculated according to the method of J. M. Van Rossum, Arch. Int. Pharmacodyn Ther. 143: 299-330 (1963).

[3] = target: T2, [^3 H]nitrendipine binding to rat heart membranes (calcium ion-channel protein) (Rattus norvegicus, UniProt P22002); experiment: [^3 H]Nitrendipine binding assay (enhancement of binding to rat heart membranes); parameters: species or system rat (male Sprague-Dawley); conditions: ligand 0.1 nM, mean ± SEM; for activity at 1 µM: 10^-6 M; for activity at 0.1 µM: 10^-7 M
T2 construct: Membranes were prepared from the hearts of male Sprague-Dawley rats; from tissue; host or cells: heart membranes of male Sprague-Dawley rats
T2 sequence (P22002 whole entry, other chains not shown): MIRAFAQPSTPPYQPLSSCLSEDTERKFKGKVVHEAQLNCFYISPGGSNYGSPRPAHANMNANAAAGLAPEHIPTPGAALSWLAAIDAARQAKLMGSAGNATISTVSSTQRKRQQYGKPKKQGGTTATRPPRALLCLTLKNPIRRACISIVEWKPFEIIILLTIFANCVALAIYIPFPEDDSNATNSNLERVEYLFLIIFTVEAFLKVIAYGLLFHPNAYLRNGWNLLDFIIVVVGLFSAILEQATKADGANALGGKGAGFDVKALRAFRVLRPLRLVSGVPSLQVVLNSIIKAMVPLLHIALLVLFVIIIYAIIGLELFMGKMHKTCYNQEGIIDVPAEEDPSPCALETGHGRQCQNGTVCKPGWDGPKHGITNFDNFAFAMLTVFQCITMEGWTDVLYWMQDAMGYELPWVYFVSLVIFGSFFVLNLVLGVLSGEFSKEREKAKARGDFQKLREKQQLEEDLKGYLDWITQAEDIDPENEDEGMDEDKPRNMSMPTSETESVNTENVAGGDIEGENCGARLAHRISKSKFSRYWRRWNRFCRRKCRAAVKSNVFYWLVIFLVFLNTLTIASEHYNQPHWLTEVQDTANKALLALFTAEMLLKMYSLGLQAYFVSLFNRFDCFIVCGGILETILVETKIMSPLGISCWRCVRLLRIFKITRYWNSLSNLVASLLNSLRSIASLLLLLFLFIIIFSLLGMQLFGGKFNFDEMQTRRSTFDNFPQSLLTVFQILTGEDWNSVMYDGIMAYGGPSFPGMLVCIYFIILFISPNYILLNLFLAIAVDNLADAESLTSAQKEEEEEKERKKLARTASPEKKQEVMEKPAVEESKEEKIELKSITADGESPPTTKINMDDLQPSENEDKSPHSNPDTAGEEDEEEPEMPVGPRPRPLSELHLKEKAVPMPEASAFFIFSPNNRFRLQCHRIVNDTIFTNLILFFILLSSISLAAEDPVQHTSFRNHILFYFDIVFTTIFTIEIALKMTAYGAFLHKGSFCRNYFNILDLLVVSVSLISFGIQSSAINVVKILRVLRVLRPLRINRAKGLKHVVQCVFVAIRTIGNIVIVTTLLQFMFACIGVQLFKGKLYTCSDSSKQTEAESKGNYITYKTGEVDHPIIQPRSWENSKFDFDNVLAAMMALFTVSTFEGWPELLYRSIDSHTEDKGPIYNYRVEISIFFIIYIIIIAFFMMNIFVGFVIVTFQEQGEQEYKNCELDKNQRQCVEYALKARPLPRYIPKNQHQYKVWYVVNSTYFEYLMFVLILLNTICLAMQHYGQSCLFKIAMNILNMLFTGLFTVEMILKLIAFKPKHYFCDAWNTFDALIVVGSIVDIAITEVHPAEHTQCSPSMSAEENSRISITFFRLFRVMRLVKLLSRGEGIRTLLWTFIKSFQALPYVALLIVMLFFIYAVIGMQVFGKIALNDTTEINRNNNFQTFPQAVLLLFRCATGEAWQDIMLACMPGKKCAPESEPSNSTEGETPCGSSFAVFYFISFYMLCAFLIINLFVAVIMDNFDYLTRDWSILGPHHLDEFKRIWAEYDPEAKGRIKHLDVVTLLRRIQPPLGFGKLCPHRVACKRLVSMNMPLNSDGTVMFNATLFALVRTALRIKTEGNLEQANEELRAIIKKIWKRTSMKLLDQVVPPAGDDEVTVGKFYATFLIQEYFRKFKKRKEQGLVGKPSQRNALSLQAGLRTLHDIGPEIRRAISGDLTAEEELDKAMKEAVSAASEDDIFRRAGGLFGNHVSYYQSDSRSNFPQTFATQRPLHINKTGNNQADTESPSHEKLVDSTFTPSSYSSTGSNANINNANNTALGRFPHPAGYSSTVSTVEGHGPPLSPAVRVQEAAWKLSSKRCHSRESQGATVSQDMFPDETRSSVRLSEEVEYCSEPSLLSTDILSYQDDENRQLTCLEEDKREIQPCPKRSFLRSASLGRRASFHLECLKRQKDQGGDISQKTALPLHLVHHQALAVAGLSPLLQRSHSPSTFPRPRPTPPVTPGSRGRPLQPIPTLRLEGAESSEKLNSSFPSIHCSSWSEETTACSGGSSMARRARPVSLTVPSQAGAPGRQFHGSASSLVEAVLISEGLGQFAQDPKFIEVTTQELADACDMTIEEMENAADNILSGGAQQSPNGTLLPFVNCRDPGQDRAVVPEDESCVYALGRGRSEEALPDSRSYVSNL
T2 sequence (P54290 25-945 partner limits assumed, other chains not shown): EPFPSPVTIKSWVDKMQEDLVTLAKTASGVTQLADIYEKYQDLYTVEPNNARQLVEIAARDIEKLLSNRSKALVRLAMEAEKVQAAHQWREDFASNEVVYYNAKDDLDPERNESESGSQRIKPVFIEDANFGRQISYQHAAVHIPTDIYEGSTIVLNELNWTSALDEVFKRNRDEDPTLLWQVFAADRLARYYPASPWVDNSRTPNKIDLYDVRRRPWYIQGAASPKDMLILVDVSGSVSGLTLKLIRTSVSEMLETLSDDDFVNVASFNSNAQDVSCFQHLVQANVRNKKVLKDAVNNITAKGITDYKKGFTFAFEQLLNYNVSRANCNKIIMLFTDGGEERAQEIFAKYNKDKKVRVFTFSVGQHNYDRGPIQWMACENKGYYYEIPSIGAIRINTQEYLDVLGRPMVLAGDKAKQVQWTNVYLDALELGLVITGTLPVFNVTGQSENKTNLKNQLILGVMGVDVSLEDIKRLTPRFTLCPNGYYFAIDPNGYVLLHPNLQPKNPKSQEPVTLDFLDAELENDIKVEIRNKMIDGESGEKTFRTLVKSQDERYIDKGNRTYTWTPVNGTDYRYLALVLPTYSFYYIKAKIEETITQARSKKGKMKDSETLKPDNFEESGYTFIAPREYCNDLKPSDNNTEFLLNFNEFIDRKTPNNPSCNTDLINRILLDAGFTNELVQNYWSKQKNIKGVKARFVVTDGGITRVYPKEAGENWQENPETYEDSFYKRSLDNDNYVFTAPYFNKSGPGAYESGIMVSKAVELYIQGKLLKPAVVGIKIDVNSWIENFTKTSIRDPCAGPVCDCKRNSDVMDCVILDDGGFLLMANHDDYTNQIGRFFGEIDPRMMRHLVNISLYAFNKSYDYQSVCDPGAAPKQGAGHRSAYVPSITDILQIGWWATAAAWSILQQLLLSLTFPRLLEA
T2 sequence (P54290 946-1091 partner limits assumed, other chains not shown): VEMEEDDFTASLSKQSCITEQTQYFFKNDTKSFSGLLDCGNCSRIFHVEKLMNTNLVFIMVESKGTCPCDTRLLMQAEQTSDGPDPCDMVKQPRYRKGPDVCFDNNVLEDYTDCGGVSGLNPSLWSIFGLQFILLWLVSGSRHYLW
Description: Membranes were prepared from the hearts of male Sprague-Dawley rats and [^3 H]nitrendipine binding was conducted as described in detail by H. R. Lee, et al., J. Pharmacol Exp. Ther. 233:611-616, (1985), as modified by F. J. Ehlert, et al., Biochem. Biophys. Rec. Common. 104:937-943, (1982). The ability of compounds tested at 10^-6 and 10^-7 M to enhance [^3 H]nitredepine binding was taken as indicative of diltiazem-like calcium antagonistic properties.
Values are the mean ± SEM of single experiments run in triplicate at
the concentrations of drugs indicated. Ligand concentration was 0.1 nM an
control specific binding was 49.6 ± 1.7 fmol/mg protein.

[4] = tested on: calcium ion-channel protein; conditions: [^3 H]nitrendipine as the ligand; cited from earlier work

SMILES: c1ccc([C@H]2CCC[C@H]2N=C2CCCCCN2)cc1 (relative stereo) [Test Compound 15, hexahydro-2-[(cis-2-phenylcyclopentyl)imino]azepine]
- pKi ([1]; 25° C.): 4.16

SMILES: C1CCNC(=NC2C3CC4CC(C3)CC2C4)CC1 (stereo not shown) [Test Compound 13, 2-(2-adamantanylimino)hexahydroazepine]
- pA2 [2]: 5.47
- pKi ([1]; 25° C.): 4.70

SMILES: C1CCNC(=N[C@@H]2CCC[C@@H]2C2CCCCC2)CC1 (relative stereo) [Test Compound 12, 2-[(cis-2-cyclohexylcyclopentyl)imino]hexahydroazepine]
- pA2 [2]: 5.54
- pKi ([1]; 25° C.): 5.54

SMILES: c1ccc(-c2ccccc2N=C2CCCCCCCCCCCN2)cc1 [Test Compound 2, 2-(o-biphenylylimino)azacyclotridecane]
- mean pA2 value (95% confidence interval), Schild plot [2]: 6.59 (6.33-7.17)
- activity at 1 µM ([3]; 25° C.): 123 ± 10%
- activity at 0.1 µM ([3]; 25° C.): 117 ± 7%
- activity at 1 µM ([3]; 37° C.): 152 ± 15%
- activity at 0.1 µM ([3]; 37° C.): 152 ± 9%

SMILES: CCCC(CN=C1CCCCN1)(c1ccccc1)c1ccccc1 [Test Compound 23, 2-[(2,2-diphenylpentyl)imino]piperidine]
- pA2 ([2]; listed as 23): 6.04

SMILES: c1ccc(C(N=C2CCCCCCN2)C23CC4CC(CC(C4)C2)C3)cc1 (stereo not drawn) [Test Compound 8, 2-[[α-(1-adamantanyl)benzyl]imino]octahydroazocine]
- pA2 [2]: 6.63
- pKi ([1]; 25° C.): 6.72

SMILES: C1CCCCCNC(=NC2CC3CCC2C3)CCCCC1 (stereo not shown) [Test Compound 4, 2-(2-norbornylimino)azacyclotridecane]
- pA2 [2]: 6.07
- pKi ([1]; 25° C.): 5.92
- activity at 1 µM ([3]; 25° C.): 106 ± 4%
- activity at 0.1 µM ([3]; 25° C.): 105 ± 4%
- activity at 1 µM ([3]; 37° C.): 116 ± 8%
- activity at 0.1 µM ([3]; 37° C.): 108 ± 7%

SMILES: COc1ccc(CCN(C)CCCC(C#N)(c2ccc(OC)c(OC)c2)C(C)C)cc1OC (stereo not shown) [verapamil]
- effect on [^3 H]nitrendipine binding [4]: displaces [^3 H]nitrendipine in a non-competitive manner

SMILES: Clc1ccc(C(N=C2CCCCCN2)c2ccc(Cl)cc2)cc1 [Test Compound 10, 2-[(p-chloro-α-[p-chlorophenyl]benzyl)imino]hexahydroazepine]
- pA2 [2]: 6.33
- pKi ([1]; 25° C.): 6.08

SMILES: COc1ccc([C@@H]2Sc3ccccc3N(CCN(C)C)C(=O)[C@@H]2OC(C)=O)cc1 [Test Compound 17, (1)-cis-5-2-(dimethylamino)etnyl]2,3-dihydro-3-hydroxy-2-(p-methoxyphenyl)-1,5-benzothiazepin-4(5H)-one acetate, reference compound]
- effect on [^3 H]nitrendipine binding [4]: enhances binding
- mean slope (±S.D.) of Schild plot [2]: 1.00 (0.15)
- activity at 1 µM ([3]; 25° C.): 83 ± 8%
- activity at 0.1 µM ([3]; 25° C.): 96 ± 5%
- activity at 1 µM ([3]; 37° C.): 262 ± 10%
- activity at 0.1 µM ([3]; 37° C.): 218 ± 4%

SMILES: c1ccc(C(CN=C2CCCCCN2)c2ccccc2)cc1 [Test Compound 21, hexahydro-2-(2,2-diphenylethylimino)azepine]
- pA2 [2]: 6.14

SMILES: c1ccc(C(CCN=C2CCCCCN2)c2ccccc2)cc1 [Test Compound 20, hexahydro-2-[3,3-diphenylpropylimino)azepine]
- pA2 [2]: 6.19

SMILES: c1ccc([C@H]2CCC[C@H]2N=C2CCCCCCCN2)cc1 (relative stereo) [Test Compound 14, octahydro-2-[(cis-2-phenylcyclopentyl)imino]azonine]
- pA2 [2]: 4.84
- pKi ([1]; 25° C.): 5.26

SMILES: c1ccc([C@@H]2CCC[C@@H]2N=C2CCCN2)cc1 (relative stereo) [Test Compound 16]
- pKi ([1]; 25° C.): 4.96

SMILES: CC(N=C1CCCCCN1)c1cccc2ccccc12 (single isomer, unassigned; (-)) [Test Compound 26, (-)-hexahydro-N-[1-(1-naphthalenyl)ethyl]2H-azepin-2-imine]
- pA2 [2]: 5.18

SMILES: FC(F)(F)c1cccc(C(N=C2CCCCCN2)c2ccccc2)c1 (stereo not shown) [Test Compound 11, hexahydro-N-[phenyl[3-(trifluoromethyl)phenyl]methyl]-2H-azepin-2-imine]
- pA2 [2]: 5.60
- pKi ([1]; 25° C.): 5.92

SMILES: CCCCOc1ccc(C(N=C2CCCCCN2)c2ccccc2)cc1 (stereo not drawn) [Test Compound 9, 2-[(p-butoxy-α-phenylbenzyl)imino]hexahydroazepine]
- pA2 [2]: 5.86
- pKi ([1]; 25° C.): 6.17

SMILES: COc1cc(CN=C2NCCC2=Cc2ccc(C)cc2)ccc1O [Test Compound 19, 2-methoxy-4-[[[3-[(4-methylphenyl)methylene]-2-pyrrolidinyliden]amino]methyl]phenol]
- IC50 ([1]; 25° C.): 1260 ± 90 nM
- IC50 ([1]; 37° C.): 1900 ± 230 nM

SMILES: CCCC(CN=C1CCCCN1)(c1ccccc1)c1ccccc1 [Test Compound 7, 2-[(2,2-diphenylpentyl)imino]piperidine]
- pA2 ([2]; listed as 7): 6.15

SMILES: CCCC(CN=C1CCCCCN1)(c1ccccc1)c1ccccc1 [Test Compound 22, hexahydro-2-[(2,2-diphenylpentyl)imino]azepine]
- pA2 ([2]; listed as 22): 6.31

SMILES: CCCC(CN=C1CCCCCCN1)(c1ccccc1)c1ccccc1 [Test Compound 5, 2-[(2,2-diphenylpentyl)imino]octahydroazocine]
- pA2 ([2]; listed as 5): 6.60
- activity at 1 µM ([3]; 37° C.): 122 ± 3%
- activity at 0.1 µM ([3]; 37° C.): 111 ± 9%

SMILES: CCCC(CN=C1CCCCCN1)(c1ccccc1)c1ccccc1 [Test Compound 6, hexahydro-2-[(2,2-diphenylpentyl)imino]azepine]
- pA2 ([2]; listed as 6): 6.64

SMILES: CC(N=C1CCCCCN1)c1cccc2ccccc12 (single isomer, unassigned; (+)) [Test Compound 25, (+)-hexahydro-N-[1-(1-naphthalenyl)ethyl]2H-azepin-2-imine]
- pA2 [2]: 5.47

SMILES: CCCC(CN=C1CCCCCCN1)(c1ccccc1)c1ccccc1 [Test Compound 24, 2-[(2,2-diphenylpentyl)imino]octahydroazocine]
- pA2 ([2]; listed as 24): 6.63

SMILES: CCCC(CN=C1CCCCCCCCCCCN1)(c1ccccc1)c1ccccc1 [Test Compound 1, N-(2,2-diphenylpentyl)azacyclotridecan-2-imine]
- mean pA2 value (95% confidence interval), Schild plot [2]: 7.27 (6.95-8.12)
- mean slope (±S.D.) of Schild plot [2]: 0.94 (0.21)
- pKi ([1]; 25° C.): 6.49
- activity at 1 µM ([3]; 25° C.): 123 ± 6%
- activity at 0.1 µM ([3]; 25° C.): 119 ± 6%
- activity at 1 µM ([3]; 37° C.): 224 ± 14%
- activity at 0.1 µM ([3]; 37° C.): 252 ± 13%
